In patent publication US10723744B2, “Transplantation therapies” (Aphios Corporation, priority 2007, dated 2020):
Entries after “also recorded” stand apart in the source; their conditions may differ. Read-outs that look alike come from different tables or passages of the source.

Assays:
[1] = tested on: HUVECs; assay: Time course of protection against LTB4 induced PMN TEM after 1 h pretreatment, HUVECs; type: cell-based, human; conditions: single 1 h 100 nM pretreatment
Protocol: (§1) At confluency, HUVECs were treated for 1 h at 37° C. with Bryostatin-1 (10 nM, 100 nM) in EGM or EGM alone. Inserts were washed three times with HBSS (to reduce drug effects on the neutrophils) and migration assays were ran at t=0, 24, or 48 h. After time elapsed, HUVECs were placed in a new plate containing either 500 μL 100 nM LTB4 or HBSS alone for control. 500 μL HBSS was then added to the top well and spiked with 500,000 neutrophils. Neutrophils were allowed to migrate for 3 h at 37° C. Migration was stopped by removing the inserts and migration was measured using the MPO assay.
(§2) Neutrophil migration was measured using myeloperoxidase (MPO) analysis. Cell culture inserts were first removed and plates were spun at 1,500 RPM for 5 min. The supernatant was removed, and MPO activity was measured using TMB/peroxide as chromogen. The reaction was stopped with sulfuric acid and absorbance was read at 450 nm using a microplate reader. All experiments were performed n=6. Data was expressed as “% neutrophil migration”, which allowed cumulative statistical analysis to be done and account for unpreventable batch-to-batch variations.

[2] = tested on: HMECs; assay: LTB4 induced neutrophil migration across HMEC monolayers (transwell, MPO assay); type: cell-based, human; conditions: 100 nM LTB4; for LTB4 induced neutrophil migration: HMECs on transwells, 1 h pretreatment 100 nM or 10 nM (PMA: 100, 10 or 1 nM), 3 h; for LTB4 induced neutrophil migration (PMN TEM) / LTB4 induced neutrophil TEM: HMECs; for LTB4 induced neutrophil migration (PMN TEM): 1 h pretreatment at 1 nM; for LTB4 induced neutrophil TEM: 1 h pretreatment, higher doses (100 nM)
Protocol: (§3) At confluency HMECs were treated for 1 h at 37° C. with Bryostatin-1 (10 nM, 100 nM) in MCDB-131 media or MCDB-131 media alone. Inserts were washed three times with Hank's Balanced Salt Solution (HBSS) (to eliminate drug effects on the neutrophils) and placed in a new plate containing either 500 μL 100 nM LTB4, or HBSS alone for control. 500 μL HBSS was then added to the top well and spiked with 500,000 neutrophils. For TNF-α experiments, HMECs were left in 20 ng/ml TNF-α in MCDB-131 for 24 h TNF-α was removed and HMECs washed three times. HMECs were treated for 1 h with Bryostatin-1 in endothelial growth medium (EGM) (10 nM, 100 nM). The drug was removed and cells were washed three times. 500 μL HBSS was added to both upper and lower chambers and spiked with 500,000 neutrophils. Neutrophils were allowed to migrate for 3 h at 37° C. Migration was stopped by removing the inserts and migration was measured using the myeloperoxidase (MPO) assay.
as §2
(§4) Confluent HMEC monolayers were plated on 48-well plates for adhesion studies, transwells for migration studies, and pretreated with a variety of pharmacological inhibitors and activators for 1 hour. Monolayers were washed three times with HBSS to remove all drug effects on the endothelium. To initiate migration, 100 nM LTB4 was added to the lower compartment and 500,000 neutrophils were added to the upper compartment and allowed to migrate for 3 h. For adhesion assays, LTB4 was added along with 500,000 neutrophils and allowed to adhere for 1 h (time of max. adhesion as determined in FIG. 1). […] The data are shown as % change in migration and adhesion as assessed by MPO assay. All values are expressed as means±SE. Data were analyzed using a one-way ANOVA with Bonferroni corrections for multiple comparisons. Probability (p) values of <0.05 were considered significant. ***p<0.001 vs. LTB4; **p<0.01 vs. LTB4; **p<0.05 vs. LTB4; n=4 for all experiments.

[3] = tested on: HMEC; assay: Alamar blue endothelial viability assay, HMEC; type: cell-based, human; conditions: single 1 h 100 nM treatment; time points 1, 24, 48 h
Protocol: (§5) The Alamar blue assay was used to determine endothelial viability after pharmacological intervention. Alamar blue contains a REDOX indicator that results in a color change upon chemical reduction by cellular metabolic activity. Endothelial cells were treated with Bryostatin-1 (100 nM) for 1 h and washed three times with HBSS. Alamar blue (10%) in media was added for 2.5 h at T=0, 24, or 48 hours after drug treatment and the ratio of absorbances (570-600 nm) was measured to determine metabolic activity.

[4] = tested on: HMECs; type: cell-based, human; conditions: for TNF-α induced neutrophil TEM (Type II migration): HMECs, 24 h TNF-α 10 or 20 ng/ml, 1 hour pretreatment with 100 nM
Protocol: as §3, §2

[5] = tested on: PKC-ε siRNA nucleofected HUVEC; assay: LTB4 induced neutrophil migration across PKC-ε siRNA nucleofected HUVEC; type: cell-based, human; conditions: 1 hour pretreatment
Protocol: (§6) HUVECs were pretreated with Go-6983 (1, 10, 100 nM), or Go-6976 (1, 10, 100 nM) for 30 minutes, then spiked with 100 nM Bryostatin-1 for 1 hour. HUVECs previously nucleofected with PKC-δ, -ε, or control siRNA were just treated in Bryostatin-1 for 1 hour. HUVECs were washed three times and placed in a new plate containing either 500 μL 100 nM LTB4, or HBSS alone for control. Neutrophils were allowed to migrate for 3 h at 37° C. Migration was stopped by removing the inserts and migration was measured using the MPO assay.
as §2
(§7) Optimum nucleofection parameters were determined using nucleofection of a control vector pmaxGFP. Using fluorescence microscopy and flow cytometry, 2 μg vector/500,000 cells nucleofected yielded the highest nucleofection (data not shown). HUVECs were grown to 70% confluency, trypsinized, and then counted. […]

[6] = tested on: HUVEC; assay: Alamar blue endothelial viability assay, HUVEC; type: cell-based, human
Protocol: as §5

[7] = tested on: HMECs; assay: Time course of protection against LTB4 induced PMN TEM after 1 h pretreatment, HMECs; type: cell-based, human; conditions: for time after pretreatment up to which LTB4 induced migration is reduced: 100 nM, 1 h pretreatment, washed, tested at 0, 24, 48 hours; for time after pretreatment for which reduction in LTB4 induced migration is maintained: single 1 h 100 nM pretreatment
Protocol: FIG. 6 graphically depicts protection against LTB4 induced PMN TEM with PMA up to 48 h after pretreatment. HMECs were pretreated for 1 h with PMA and washed with HBSS three times to remove PMA prior to replacement of culture medium. Neutrophil migration studies were then performed at 0, 24, or 48 hours. Migration was stimulated by adding 500,000 neutrophils to the top well and 100 nM LTB4 to the lower well at 0, 24, and 48 hours after PMA pretreatment. […] PMA (100 nM, (10^−7M) reduced LTB4 induced migration up to 48 hours after 1 h of endothelial-specific pretreatment (***p<0.001).
Referring now to FIG. 7, FIG. 7 graphically depicts protection from LTB4 induced PMN TEM with Bryostatin-1 up to 48 hours after pretreatment. HMECs were pretreated for 1 h with Bryostatin-1 and washed with HBSS three times to remove Bryostatin-1 prior to replacement of culture medium. Neutrophil migration studies were then performed at 0, 24, or 48 hours. Migration was stimulated by adding 500,000 neutrophils to the top well and 100 nM LTB4 to the lower well at 0, 24, and 48 hours after Bryostatin-1 pretreatment. […] Bryostatin-1 (100 nM) reduced LTB4 induced migration up to 48 hours after 1 hour endothelial pretreatment (***p<0.001).
as §1, §2

[8] = cited from earlier work
[9] = tested on: HUVECs; assay: Neutrophil TEM restoration studies with PKC inhibitors; type: cell-based, human; conditions: HUVEC; for restoration of PMN TEM in response to LTB4 by PKC inhibitors (reversal of Bryostatin-1 protection): inhibitor pretreatment (Go-6983, Go-6976: 1, 10, 100 nM), then 100 nM Bryostatin-1
Protocol: as §6, §2

[10] = tested on: PKC-δ siRNA nucleofected HUVEC; assay: LTB4 induced neutrophil migration across PKC-δ siRNA nucleofected HUVEC; type: cell-based, human; conditions: 100 nM, 1 hour
Protocol: as §6, §2, §7

[11] = tested on: T84 intestinal epithelia; conditions: cited from earlier work
[12] = tested on: HMEC monolayers; assay: LTB4 induced neutrophil adhesion to the endothelial monolayer; type: cell-based, human; conditions: data not shown
Protocol: as §4

[13] = tested on: endothelial and epithelial cells; conditions: several types of endothelial and epithelial cells; cited from earlier work
[14] = tested on: endothelial cells; conditions: greater effect seen with PKC-α inhibition; cited from earlier work
[15] = single 1 h 100 nM treatment, time points 1, 24, 48 h (PMA: except 48 h)

Compound: CCC/C=C/C=C/C(=O)O[C@H]1/C(=C/C(=O)OC)C[C@H]2C[C@H]([C@@H](C)O)OC(=O)C[C@H](O)C[C@@H]3C[C@H](OC(C)=O)C(C)(C)[C@](O)(C[C@@H]4C/C(=C/C(=O)OC)C[C@H](/C=C/C(C)(C)[C@]1(O)O2)O4)O3 [Bryostatin-1]
- time after pretreatment for which reduction in LTB4 induced migration is maintained [1]: 48 h
- LTB4 induced neutrophil migration [2]: reduced LTB4 induced migration in a dose dependent manner
- LTB4 induced neutrophil migration (PMN TEM) [2]: did not reduce PMN TEM
- LTB4 induced neutrophil TEM [2]: attenuated neutrophil TEM to levels below that of basal migration
- HMEC viability [3]: no effect
- migration induced by a combination of TNF-α pretreatment and LTB4 gradient ([4]; 24 h TNF-α pretreatment and 100 nM LTB4 gradient, data not shown): reduced migration
- TNF-α induced neutrophil TEM (Type II migration) [4]: attenuated Type II migration; also recorded: totally attenuated
- LTB4 induced neutrophil migration after pretreatment, PKC-ε knocked down [5]: did not restore LTB4 induced migration; also recorded: still suppresses migration
- HUVEC viability [6, 15]: no effect
- time after pretreatment up to which LTB4 induced migration is reduced [7]: up to 48 hours
- time after pretreatment for which reduction in LTB4 induced migration is maintained [7]: at least 48 h
- time after pretreatment for which reduction in LTB4 induced migration is maintained ([7]; listed as Bryostatin): 48 h
- cardiovascular disturbances or edema ([8]; Phase II cancer trials): no cardiovascular disturbances or evidence of edema have been observed
- major side effects associated with use ([8]; Phase II cancer trials): myalgias, nausea, and vomiting
- adverse effects ([8]; healthy subjects and cancer patients, dosing ranges higher than for 100 ng/ml plasma level): no adverse effects
- LTB4 induced neutrophil migration ([9]; 100 nM Bryostatin-1, 1 hour, 100 nM LTB4, 3 h): reversed; also recorded: significantly suppressed LTB4 induced migration
- LTB4 induced neutrophil migration after pretreatment, PKC-δ knocked down [10]: restored the normal level of neutrophil trans endothelial migration
- barrier function [11]: enhances barrier function
- barrier loss induced by TNF-α [11]: inhibits barrier loss
- LTB4 induced adhesion to the endothelial monolayer [12]: Neither PMA, nor Bryostatin-1 reduced LTB4 induced adhesion

Compound: CN(C)CCCn1cc(C2=C(c3c[nH]c4ccccc34)C(=O)NC2=O)c2ccccc21 [GF10923X]
- restoration of PMN TEM in response to LTB4 by PKC inhibitors (reversal of Bryostatin-1 protection) [9]: did not restore PMN TEM

Compound: Cn1c2ccccc2c2c3c(c4c5ccccc5n(CCC#N)c4c21)CNC3=O [GO-6976]
- restoration of PMN TEM in response to LTB4 by PKC inhibitors (reversal of Bryostatin-1 protection) [9]: did not restore PMN TEM

Compound: COc1ccc2c(c1)c(C1=C(c3c[nH]c4ccccc34)C(=O)NC1=O)cn2CCCN(C)C [Go-6983]
- Bryostatin-1 mediated reduction in migration towards LTB4, effect of PKC inhibitor pretreatment ([9]; inhibitor 10 or 100 nM, 30 minutes before 100 nM Bryostatin-1): prevented
- restoration of PMN TEM in response to LTB4 by PKC inhibitors (reversal of Bryostatin-1 protection) [9]: dose dependently restored neutrophil migration
- restoration of PMN TEM in response to LTB4 by PKC inhibitors (reversal of Bryostatin-1 protection) ([9]; listed as G0-6983): dose dependently reversed

Compound: CCCCCCCCCCCCCC(=O)O[C@@H]1[C@@H](C)[C@@]2(O)[C@@H](C=C(CO)C[C@]3(O)C(=O)C(C)=C[C@@H]23)[C@@H]2C(C)(C)[C@]12OC(C)=O [PMA, phorbol myristate acetate]
- time after pretreatment for which reduction in LTB4 induced migration is maintained [1]: up to 48 h
- LTB4 induced neutrophil migration [2]: reduced LTB4 induced migration in a dose dependent manner
- LTB4 induced neutrophil migration (PMN TEM) [2]: did not reduce PMN TEM; also recorded: had no effect on LTB4 induced migration
- LTB4 induced neutrophil TEM [2]: attenuated neutrophil TEM to levels below that of basal migration
- HMEC viability [3]: no effect
- migration induced by a combination of TNF-α pretreatment and LTB4 gradient [4]: reduced migration
- TNF-α induced neutrophil TEM (Type II migration) [4]: attenuated Type II migration; also recorded: totally attenuated
- LTB4 induced neutrophil migration after pretreatment, PKC-ε knocked down [5]: did not restore LTB4 induced migration
- HUVEC viability ([6]; 48 h after a single 1 h treatment with 100 nM): slight but significant reduction in viability
- HUVEC viability [6, 15]: no effect
- time after pretreatment up to which LTB4 induced migration is reduced [7]: up to 48 hours
- trans endothelial resistance (TER) [13]: decrease trans endothelial resistance (TER)
- LTB4 induced adhesion to the endothelial monolayer [12]: Neither PMA, nor Bryostatin-1 reduced LTB4 induced adhesion

Compound: CC(=O)c1c(O)c(C)c(O)c(Cc2c(O)c3c(c(C(=O)/C=C/c4ccccc4)c2O)OC(C)(C)C=C3)c1O [Rottlerin]
- restoration of PMN TEM in response to LTB4 by PKC inhibitors (reversal of Bryostatin-1 protection) [9]: did not restore PMN TEM

Compound: hypocrellin A
- increased permeability caused by high glucose and PMA [14]: reduced this increased permeability
